Results reported in US8183351B2, “Avermectin derivatives” (Bayer Cropscience AG, priority 2006, dated 2012).

How the values were obtained:
Assay type in all cases: in vivo
[1] = test system: larvae of the mustard beetle (Phaedon cochleariae); experiment: Phaedon test (PHAECO spray treatment); details: 4 ppm active compound, sprayed Chinese cabbage discs
Method: Phaedon Test (PHAECO Spray Treatment)
• Solvents: 78 parts by weight of acetone • 1.5 parts by weight of dimethylformamide • Emulsifier: 0.5 part by weight of alkylaryl polyglyycol ether
After the desired period of time, the effect in % is determined. 100% means that all beetle larvae have been killed; 0% means that none of the beetle larvae have been killed.

[2] = test system: unfed adult fleas (Ctenocephalides felis); experiment: Ctenocephalides felis; oral (CTECFE); details: Example J; 4 ppm active compound in citrated cattle blood, oral uptake
Method: Ctenocephalides felis; Oral (CTECFE)
(§1) • Solvent: Dimethyl sulphoxide
To produce a suitable preparation of active compound, 1 part by weight of active compound is mixed with the stated amount of solvent. Part of the concentrate is diluted with citrated cattle blood, and the desired concentration is prepared.
20 unfed adult fleas (Ctenocephalides felis) are placed into a chamber whose top and bottom ends are closed with gauze. A metal cylinder whose bottom end is closed with parafilm is placed onto the chamber. The cylinder contains the blood/active compound preparation, which can be taken up by the fleas through the parafilm membrane. The blood is warmed to 37° C., but the flea chamber is at room temperature.
After the desired period of time, the kill in % is determined. 100% means that all fleas have been killed; 0% means that none of the fleas have been killed.
(§2) In this test, for example, the following compounds of the preparation examples show good activity: see table

Lucilia cuprina larvae = experiment: Lucilia cuprina test (LUCICU); details: treated horsemeat
Method: Lucilia cuprina Test (LUCICU)
Description for Examples A and B
as §1
To produce a suitable preparation of active compound, 1 part by weight of active compound is mixed with the stated amount of water and the concentrate is diluted with water to the desired concentration.
Containers containing horsemeat treated with the active compound preparation of the desired concentration are populated with Lucilia cuprina larvae.
After the desired period of time, the kill in % is determined. 100% means that all larvae have been killed; 0% means that none of the larvae have been killed.
as §2

adult Musca domestica = experiment: Musca domestica test (MUSCDO); details: Example C, treated sponge
Method: Musca domestica Test (MUSCDO)
as §1
To produce a suitable preparation of active compound, 1 part by weight of active compound is mixed with the stated amount of water, and the concentrate is diluted with water to the desired concentration.
Containers containing a sponge treated with the preparation of active compound of the desired concentration are populated with adult Musca domestica.
After the desired period of time, the kill in % is determined. 100% means that all flies have been killed; 0% means that none of the flies have been killed.
as §2

[3] = test system: eggs, larvae and pupae of the whitefly (Bemisia tabaci); experiment: Bemisia tabaci test, normally sensitive strains (BEMITA); details: Example E; 0.8 ppm active compound; sprayed cotton plants
Method: Bemisia tabaci Test, Normally Sensitive Strains, (BEMITA)
• Solvent: 7 parts by weight of dimethylformamide • Emulsifier: 10 parts by weight of alkylaryl polyglycol ether
(§3) To produce a suitable preparation of active compound, 1 part by weight of active compound is mixed with the stated amounts of solvents and emulsifier, and the concentrate is diluted with emulsifier-containing water to the desired concentration.
Cotton plants (Gossypium hirsutum) infected by eggs, larvae and pupae of the whitefly (Bemisia tabaci) are treated by being sprayed with the preparation of active compound at the desired concentration.
After the desired period of time, the kill in % is determined 100% means that all animals have been killed; 0% means that none of the animals have been killed.
as §2

[4] = test system: greenhouse red spider mite (Tetranychus urticae); experiment: Tetranychus test, OP-resistant (TETRUR spray treatment); details: sprayed bean leaf discs
Method: Tetranychus Test, OP-resistant (TETRUR Spray Treatment)
• Solvents: 78 parts by weight of acetone • 1.5 parts by weight of dimethylformamide • Emulsifier: 0.5 part by weight of alkylaryl polyglycol ether
as §3
Discs of bean leaves (Phaseolus vulgaris) heavily infested by all stages of the greenhouse red spider mite (Tetranychus urticae) are sprayed with a preparation of active compound of the desired concentration.
After the desired period of time, the effect in % is determined 100% means that all spider mites have been killed; 0% means that none of the spider mites have been killed.
as §2

[5] = test system: caterpillars of the army worm (Spodoptera frugiperda); experiment: Spodoptera frugiperda test (SPODFR spray treatment); details: Example I; 4 ppm active compound; sprayed maize leaf discs
Method: Spodoptera frugiperda Test (SPODFR Spray Treatment)
• Solvents: 78.0 parts by weight of acetone • 1.5 parts by weight of dimethylformamide • Emulsifier: 0.5 part by weight of alkylaryl polyglyycol ether
After the desired period of time, the effect in % is determined. 100% means that all caterpillars have been killed; 0% means that none of the caterpillars have been killed.

[6] = Example A, 0.8 ppm active compound
[7] = Example H, 0.032 ppm active compound
[8] = Example F, 0.00128 ppm active compound

Molecule | Kill rate in % after 7 days ([1]; Example G) | Kill rate in % after 2 days [2] | Kill rate in % after 2 days (Lucilia cuprina larvae; [6]) | Kill rate in % after 2 days (adult Musca domestica; 100 ppm active compound) | further results
CC[C@H](C)[C@H]1OC2(C=C[C@@H]1C)C[C@@H]1C[C@@H](C/C=C(\C)[C@@H](OC3CC(OC)C(OC(=O)Cc4nn(C)c(=O)n4C)C(C)O3)[C@@H](C)/C=C/C=C3\CO[C@@H]4[C@H](O)C(C)=CC(C(=O)O1)[C@]34O)O2 (some centres unmarked) [Example 60] | 100% | 50% | 90% | 100% | 
CC[C@H](C)[C@H]1OC2(C=C[C@@H]1C)C[C@@H]1C[C@@H](C/C=C(\C)[C@@H](OC3CC(OC)C(OC(=O)C4(C)COCOC4)C(C)O3)[C@@H](C)/C=C/C=C3\CO[C@@H]4[C@H](O)C(C)=CC(C(=O)O1)[C@]34O)O2 (some centres unmarked) [Example 14] |  |  | 100% |  | Kill rate in % after 7 days [3]: 80%
CC[C@H](C)[C@H]1OC2(CC[C@@H]1C)C[C@@H]1C[C@@H](C/C=C(\C)[C@@H](OC3CC(OC)C(OC(=O)C(C)(C)n4cncn4)C(C)O3)[C@@H](C)/C=C/C=C3\CO[C@@H]4[C@H](O)C(C)=CC(C(=O)O1)[C@]34O)O2 (some centres unmarked) [Example 23] | 100% |  |  |  | Kill rate in % after 5 days [4, 7]: 70%
CC[C@H](C)[C@H]1OC2(C=C[C@@H]1C)C[C@@H]1C[C@@H](C/C=C(\C)[C@@H](OC3CC(OC)C(OC(=O)c4ccccc4)C(C)O3)[C@@H](C)/C=C/C=C3\CO[C@@H]4[C@H](O)C(C)=CC(C(=O)O1)[C@]34O)O2 (some centres unmarked) [Example 2] |  |  |  |  | Kill rate in % after 5 days [4, 8]: 80%
CC[C@H](C)[C@H]1OC2(C=C[C@@H]1C)C[C@@H]1C[C@@H](C/C=C(\C)[C@@H](OC3CC(OC)C(OC(=O)CN(C)C)C(C)O3)[C@@H](C)/C=C/C=C3\CO[C@@H]4[C@H](O)C(C)=CC(C(=O)O1)[C@]34O)O2 (some centres unmarked) [Example 57] | 100% | 40% | 100% | 90% | 
COC1CC(OC2C(C)=CCC3CC(CC4(CCC(C)C(C(C)C)O4)O3)OC(=O)C3C=C(C)C(O)C4OCC(=CC=CC2C)C34O)OC(C)C1OC(C)=O [4′-O-acetyl-4′-O-de(2,6-dideoxy-3-O-methyl-α-L-arabino-hexopyranosyl)-5-O-demethyl-25-de(1-methylpropyl)-22,23-dihydro-25-(1-methylethyl)-avermectin A1a, reference compound] | 0% | 20% |  |  | Kill rate in % after 5 days [4, 7]: 0%; Kill rate in % after 5 days [5]: 0%
4′-O-acetyl-4′-O-de(2,6-dideoxy-3-O-methyl-α-L-arabino-hexopyrano-syl)-5-O-demethyl-avermectin A1a [reference compound] |  |  | 30% | 60% | Kill rate in % after 5 days [4, 8]: 0%; Kill rate in % after 7 days ([1]; Example D): 0%; Kill rate in % after 7 days [3]: 0%; Kill rate in % after 2 days (Lucilia cuprina larvae; Example B, 0.16 ppm active compound): 0%; Kill rate in % after 2 days (adult Musca domestica; 0.8 ppm active compound): 0%
CC[C@H](C)[C@H]1OC2(C=C[C@@H]1C)C[C@@H]1C[C@@H](C/C=C(\C)[C@@H](OC3CC(OC)C(OC(=O)CN4CCCCC4)C(C)O3)[C@@H](C)/C=C/C=C3\CO[C@@H]4[C@H](O)C(C)=CC(C(=O)O1)[C@]34O)O2 (some centres unmarked) [Example 50] | 83% | 50% | 100% | 90% | Kill rate in % after 5 days [5]: 100%
